Numbered stars: 1 amine (or outer) side, 2 acyl side, 3 side chain; on linkers, the order of the positions; unused ones are H or OH. Bridge positions count the residues as written; N and C are the ends. Square brackets hold non-standard residues; d marks the D form. Peptide text beside a SMILES is read from it. * marks the point of attachment. Ala(piperidin-4-yl) = O=C([C@H](CC1CCN([*:3])CC1)N[*:1])[*:2]; DOTA = O=C(O)CN1CCN(CC(=O)O)CCN(CC(=O)*)CCN(CC(=O)O)CC1; 2Nal = N[C@@H](Cc1ccc2ccccc2c1)C(=O)O; tBuAla = CC(C)(C)C[C@H](N)C(=O)O; Chg = N[C@H](C(=O)O)C1CCCCC1; Tle = CC(C)(C)[C@H](N)C(=O)O
Target: T1, human DLL3 (Homo sapiens, UniProt Q9NYJ7)
T1 sequence (Q9NYJ7 27-618): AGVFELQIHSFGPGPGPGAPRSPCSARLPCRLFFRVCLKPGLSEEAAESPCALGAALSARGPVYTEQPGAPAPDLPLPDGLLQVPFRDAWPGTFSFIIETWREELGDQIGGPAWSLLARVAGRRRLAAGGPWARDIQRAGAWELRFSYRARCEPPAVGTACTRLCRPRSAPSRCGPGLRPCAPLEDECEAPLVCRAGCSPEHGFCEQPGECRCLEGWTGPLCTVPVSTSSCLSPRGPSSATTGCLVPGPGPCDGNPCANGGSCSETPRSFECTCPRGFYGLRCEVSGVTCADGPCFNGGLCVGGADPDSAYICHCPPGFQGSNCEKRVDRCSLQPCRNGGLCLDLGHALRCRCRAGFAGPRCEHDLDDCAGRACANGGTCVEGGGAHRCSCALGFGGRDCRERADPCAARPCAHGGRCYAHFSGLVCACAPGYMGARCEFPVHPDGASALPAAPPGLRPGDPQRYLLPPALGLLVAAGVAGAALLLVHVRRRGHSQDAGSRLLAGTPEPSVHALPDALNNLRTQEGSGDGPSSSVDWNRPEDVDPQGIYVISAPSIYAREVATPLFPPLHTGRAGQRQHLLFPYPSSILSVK
Experiment: Affinity determination by Surface Plasmon Resonance (SPR)
Assay type: binding
Details: 25° C., biotinylated human DLL3 immobilized on streptavidin sensor chip, 1:1 binding model; read-out: SPR KD
Summary of the method: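 Kinetic and affinity constants were derived by fitting sensorgrams to a 1:1 binding model. Graded compound concentrations flowed at 100 μL/minute in 20 mM phosphate running buffer with 2% DMSO over streptavidin-immobilized biotinylated human DLL3, reference-subtracted.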

Kd [nM]	Compound
1 to 10	CC[C@H](C)[C@H](NC(=O)[C@@H](NC(=O)[C@H](Cc1c[nH]c2ccccc12)NC(C)=O)[C@@H](C)O)C(=O)N[C@H]1CSSC[C@@H](C(=O)N[C@@H](Cc2c[nH]c3ccccc23)C(=O)N2CCC[C@H]2C(=O)N[C@H](CCCCNC(=O)CN2CCN(CC(=O)O)CCN(CC(=O)O)CCN(CC(=O)O)CC2)C(N)=O)NC(=O)[C@H](CC(=O)O)NC(=O)[C@H](CCC(=O)O)NC(=O)[C@H](Cc2c[nH]c3ccccc23)NC(=O)[C@H](CC(N)=O)NC(=O)[C@H](CCC(=O)O)NC1=O [compound 273, Ac-W-T-I-C(3)-Glu-N-W-Glu-D-C(3)-W-P-[D-Lys(DOTA)]-NH2] (Ac-WTICENWEDCWP[dK](DOTA)-NH2; disulfide 4-10)
1 to 10	CC[C@H](C)[C@H](NC(=O)[C@@H](NC(=O)[C@H](Cc1c[nH]c2ccccc12)NC(C)=O)[C@@H](C)O)C(=O)N[C@H]1CSSC[C@@H](C(=O)N[C@@H](Cc2c[nH]c3ccccc23)C(=O)N2CCC[C@H]2C(=O)N[C@H](CCCCNC(=O)CN2CCN(CC(=O)O)CCN(CC(=O)O)CCN(CC(=O)O)CC2)C(N)=O)NC(=O)[C@H](CC(=O)O)NC(=O)[C@H](CCC(=O)O)NC(=O)[C@H](Cc2c[nH]c3ccccc23)NC(=O)[C@H](CC(N)=O)NC(=O)[C@H](CC(N)=O)NC1=O [compound 274, Ac-W-T-I-C(3)-N-N-W-Glu-D-C(3)-W-P-[D-Lys(DOTA)]-NH2] (Ac-WTICNNWEDCWP[dK](DOTA)-NH2; disulfide 4-10)
1 to 10	CC[C@H](C)[C@H](NC(=O)[C@@H](NC(=O)[C@H](Cc1c[nH]c2ccccc12)NC(C)=O)[C@@H](C)O)C(=O)N[C@H]1CSSC[C@@H](C(=O)N[C@@H](Cc2c[nH]c3ccccc23)C(=O)N2CCC[C@H]2C(=O)N[C@H](CCCCNC(=O)CN2CCN(CC(=O)O)CCN(CC(=O)O)CCN(CC(=O)O)CC2)C(N)=O)NC(=O)[C@H](CC(=O)O)NC(=O)[C@H](CCC(=O)O)NC(=O)[C@H](Cc2c[nH]c3ccccc23)NC(=O)[C@H](CCC(=O)O)NC(=O)[C@H](CCC(=O)O)NC1=O [compound 275, Ac-W-T-I-C(3)-Glu-Glu-W-Glu-D-C(3)-W-P-[D-Lys(DOTA)]-NH2] (Ac-WTICEEWEDCWP[dK](DOTA)-NH2; disulfide 4-10)
10 to 100	CC[C@H](C)[C@H](NC(=O)[C@@H](NC(=O)[C@H](Cc1c[nH]c2ccccc12)NC(C)=O)[C@@H](C)O)C(=O)N[C@H]1CSSC[C@@H](C(=O)N[C@@H](Cc2c[nH]c3ccccc23)C(=O)N2CCC[C@H]2C(=O)N[C@H](CCCCNC(=O)CN2CCN(CC(=O)O)CCN(CC(=O)O)CCN(CC(=O)O)CC2)C(N)=O)NC(=O)[C@H](CC(=O)O)NC(=O)[C@H](CCC(=O)O)NC(=O)[C@H](Cc2c[nH]c3ccccc23)NC(=O)[C@H](CCC(=O)O)NC(=O)[C@H](CC(N)=O)NC1=O [compound 276, Ac-W-T-I-C(3)-N-Glu-W-Glu-D-C(3)-W-P-[D-Lys(DOTA)]-NH2] (Ac-WTICNEWEDCWP[dK](DOTA)-NH2; disulfide 4-10)
< 1	CC[C@H](C)[C@H](NC(=O)[C@@H](NC(=O)[C@H](Cc1c[nH]c2ccccc12)NC(C)=O)[C@@H](C)O)C(=O)N[C@H]1CSSC[C@@H](C(=O)N[C@@H](Cc2c[nH]c3ccccc23)C(=O)N2CCC[C@H]2C(=O)N[C@H](CCCCNC(=O)CN2CCN(CC(=O)O)CCN(CC(=O)O)CCN(CC(=O)O)CC2)C(N)=O)NC(=O)[C@H](CC(=O)O)NC(=O)[C@H](Cc2cnc[nH]2)NC(=O)[C@H](Cc2c[nH]c3ccccc23)NC(=O)[C@H](CC(N)=O)NC(=O)[C@H](CCC(=O)O)NC1=O [compound 277, Ac-W-T-I-C(3)-Glu-N-W-H-D-C(3)-W-P-[D-Lys(DOTA)]-NH2] (Ac-WTICENWHDCWP[dK](DOTA)-NH2; disulfide 4-10)
1 to 10	CC[C@H](C)[C@H](NC(=O)[C@@H](NC(=O)[C@H](Cc1c[nH]c2ccccc12)NC(C)=O)[C@@H](C)O)C(=O)N[C@H]1CSSC[C@@H](C(=O)N[C@@H](Cc2c[nH]c3ccccc23)C(=O)N2CCC[C@H]2C(=O)N[C@H](CCCCNC(=O)CN2CCN(CC(=O)O)CCN(CC(=O)O)CCN(CC(=O)O)CC2)C(N)=O)NC(=O)[C@H](CC(=O)O)NC(=O)[C@H](Cc2cnc[nH]2)NC(=O)[C@H](Cc2c[nH]c3ccccc23)NC(=O)[C@H](CCC(=O)O)NC(=O)[C@H](CCC(=O)O)NC1=O [compound 278, Ac-W-T-I-C(3)-Glu-Glu-W-H-D-C(3)-W-P-[D-Lys(DOTA)]-NH2] (Ac-WTICEEWHDCWP[dK](DOTA)-NH2; disulfide 4-10)
1 to 10	CC[C@H](C)[C@H](NC(=O)[C@@H](NC(=O)[C@H](Cc1c[nH]c2ccccc12)NC(C)=O)[C@@H](C)O)C(=O)N[C@H]1CSSC[C@@H](C(=O)N[C@@H](Cc2c[nH]c3ccccc23)C(=O)N2CCC[C@H]2C(=O)N[C@H](CCCCNC(=O)CN2CCN(CC(=O)O)CCN(CC(=O)O)CCN(CC(=O)O)CC2)C(N)=O)NC(=O)[C@H](CC(=O)O)NC(=O)[C@H](Cc2cnc[nH]2)NC(=O)[C@H](Cc2c[nH]c3ccccc23)NC(=O)[C@H](CCC(=O)O)NC(=O)[C@H](CC(N)=O)NC1=O [compound 279, Ac-W-T-I-C(3)-N-Glu-W-H-D-C(3)-W-P-[D-Lys(DOTA)]-NH2] (Ac-WTICNEWHDCWP[dK](DOTA)-NH2; disulfide 4-10)
< 1	CC(=O)N[C@@H](Cc1c[nH]c2ccccc12)C(=O)N[C@H](C(=O)N[C@H](C(=O)N[C@H]1CSSC[C@@H](C(=O)N[C@@H](Cc2c[nH]c3ccccc23)C(=O)N2CCC[C@H]2C(=O)N[C@H](CCCCNC(=O)CN2CCN(CC(=O)O)CCN(CC(=O)O)CCN(CC(=O)O)CC2)C(N)=O)NC(=O)[C@H](CC(=O)O)NC(=O)[C@H](Cc2cnc[nH]2)NC(=O)[C@H](Cc2ccc3ccccc3c2)NC(=O)[C@H](CC(N)=O)NC(=O)[C@H](CC2CCNCC2)NC1=O)C(C)(C)C)[C@@H](C)O [compound 281, Ac-W-T-(Tbg)-C(3)-[3-(4-piperidinyl)-Ala]-N-(2Nal)-H-D-C(3)-W-P-[D-Lys(DOTA)]-NH2] (Ac-WT[Tle]C[Ala(piperidin-4-yl)]N[2Nal]HDCWP[dK](DOTA)-NH2; disulfide 4-10)
< 1	CC(=O)N[C@@H](Cc1c[nH]c2ccccc12)C(=O)N[C@H](C(=O)N[C@@H](CC(C)(C)C)C(=O)N[C@H]1CSSC[C@@H](C(=O)N[C@@H](Cc2c[nH]c3ccccc23)C(=O)N2CCC[C@H]2C(=O)N[C@H](CCCCNC(=O)CN2CCN(CC(=O)O)CCN(CC(=O)O)CCN(CC(=O)O)CC2)C(N)=O)NC(=O)[C@H](CC(=O)O)NC(=O)[C@H](Cc2cnc[nH]2)NC(=O)[C@H](Cc2ccc3ccccc3c2)NC(=O)[C@H](CC(N)=O)NC(=O)[C@H](CC2CCNCC2)NC1=O)[C@@H](C)O [compound 282, Ac-W-T-(t-Bu-Ala)-C(3)-[3-(4-piperidinyl)-Ala]-N-(2Nal)-H-D-C(3)-W-P-[D-Lys(DOTA)]-NH2] (Ac-WT[tBuAla]C[Ala(piperidin-4-yl)]N[2Nal]HDCWP[dK](DOTA)-NH2; disulfide 4-10)
< 1	CC(=O)N[C@@H](Cc1c[nH]c2ccccc12)C(=O)N[C@H](C(=O)N[C@H](C(=O)N[C@H]1CSSC[C@@H](C(=O)N[C@@H](Cc2c[nH]c3ccccc23)C(=O)N2CCC[C@H]2C(=O)N[C@H](CCCCNC(=O)CN2CCN(CC(=O)O)CCN(CC(=O)O)CCN(CC(=O)O)CC2)C(N)=O)NC(=O)[C@H](CC(N)=O)NC(=O)[C@H](Cc2cnc[nH]2)NC(=O)[C@H](Cc2ccc3ccccc3c2)NC(=O)[C@H](CC(N)=O)NC(=O)[C@H](CC2CCNCC2)NC1=O)C1CCCCC1)[C@@H](C)O [compound 283, Ac-W-T-(Chg)-C(3)-[3-(4-piperidinyl)-Ala]-N-(2Nal)-H-(Asn)-C(3)-W-P-[D-Lys(DOTA)]-NH2] (Ac-WT[Chg]C[Ala(piperidin-4-yl)]N[2Nal]HNCWP[dK](DOTA)-NH2; disulfide 4-10)
< 1	CC(=O)N[C@@H](Cc1c[nH]c2ccccc12)C(=O)N[C@H](C(=O)N[C@H](C(=O)N[C@H]1CSSC[C@@H](C(=O)N[C@@H](Cc2c[nH]c3ccccc23)C(=O)N2CCC[C@H]2C(=O)N[C@H](CCCCNC(=O)CN2CCN(CC(=O)O)CCN(CC(=O)O)CCN(CC(=O)O)CC2)C(N)=O)NC(=O)[C@H](C)NC(=O)[C@H](Cc2cnc[nH]2)NC(=O)[C@H](Cc2ccc3ccccc3c2)NC(=O)[C@H](CC(N)=O)NC(=O)[C@H](CC2CCNCC2)NC1=O)C1CCCCC1)[C@@H](C)O [compound 284, Ac-W-T-(Chg)-C(3)-[3-(4-piperidinyl)-Ala]-N-(2Nal)-H-(Ala)-C(3)-W-P-[D-Lys(DOTA)]-NH2] (Ac-WT[Chg]C[Ala(piperidin-4-yl)]N[2Nal]HACWP[dK](DOTA)-NH2; disulfide 4-10)
< 1	CC(=O)N[C@@H](Cc1c[nH]c2ccccc12)C(=O)N[C@H](C(=O)N[C@H](C(=O)N[C@H]1CSSC[C@@H](C(=O)N[C@@H](Cc2c[nH]c3ccccc23)C(=O)N2CCC[C@H]2C(=O)N[C@H](CCCCNC(=O)CN2CCN(CC(=O)O)CCN(CC(=O)O)CCN(CC(=O)O)CC2)C(N)=O)NC(=O)[C@H]([C@@H](C)O)NC(=O)[C@H](Cc2cnc[nH]2)NC(=O)[C@H](Cc2ccc3ccccc3c2)NC(=O)[C@H](CC(N)=O)NC(=O)[C@H](CC2CCNCC2)NC1=O)C1CCCCC1)[C@@H](C)O [compound 285, Ac-W-T-(Chg)-C(3)-[3-(4-piperidinyl)-Ala]-N-(2Nal)-H-(Thr)-C(3)-W-P-[D-Lys(DOTA)]-NH2] (Ac-WT[Chg]C[Ala(piperidin-4-yl)]N[2Nal]HTCWP[dK](DOTA)-NH2; disulfide 4-10)

From patent US20250011368A1, “DLL3 TARGETING PEPTIDES AND CONSTRUCTS THEREOF” (MARIANA ONCOLOGY INC., priority 2023, published 2025)
